Assay results: PubChem BioAssay AID330 (DTP/NCI, 2004)
“And” between values parts separate entries of the source, which are not always exact repeats. Equal values may be shown once. Toxic doses and inconclusive results are not listed.

Test system: P388 leukemia ip, CD2F1 mice, survival T/C
Test: NCI In Vivo Anticancer Drug Screen. Data for tumor model P388 Leukemia (intraperitoneal) in CD2F1 (CDF1) mice
Conditions: endpoint: median survival time, higher = longer survival
How it was run: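 Mice carrying the transplanted tumor received test compound or vehicle. Survival was recorded in each group, and the value is the treated-group measurement divided by that of the vehicle-treated control group.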

[1] = dose: 50.0 mg/kg/injection, schedule: Q01DX005 (ip), vehicle: saline with Tween-80
[2] = dose: 100.0 mg/kg/injection, schedule: Q01DX005 (ip), vehicle: saline with Tween-80
[3] = dose: 200.0 mg/kg/injection, schedule: Q01DX005 (ip), vehicle: saline with Tween-80
[4] = dose: 12.5 mg/kg/injection, schedule: Q01DX009 (ip), vehicle: saline with Tween-80
[5] = dose: 25.0 mg/kg/injection, schedule: Q01DX009 (ip), vehicle: saline with Tween-80
[6] = dose: 50.0 mg/kg/injection, schedule: Q01DX009 (ip), vehicle: saline with Tween-80
[7] = dose: 100.0 mg/kg/injection, schedule: Q01DX009 (ip), vehicle: saline with Tween-80
[8] = dose: 50.0 mg/kg/injection, schedule: Q01DX009 (ip), vehicle: Klucel (hydroxypropylcellulose) (HPC)
[9] = dose: 50.0 mg/kg/injection, schedule: Q01DX005 (ip), vehicle: Klucel (hydroxypropylcellulose) (HPC)
[10] = dose: 100.0 mg/kg/injection, schedule: Q01DX005 (ip), vehicle: Klucel (hydroxypropylcellulose) (HPC)

`COc1ccc(Br)c(C(=O)O)c1OS(=O)(=O)c1ccc(C)cc1` was tested, and the T/C (dose: 25.0 mg/kg/injection, schedule: Q01DX009 (ip), vehicle: other) was 106 % of control, the T/C (dose: 50.0 mg/kg/injection, schedule: Q01DX009 (ip), vehicle: other) was 105 % of control and the T/C (dose: 100.0 mg/kg/injection, schedule: Q01DX009 (ip), vehicle: other) was 100 % of control. The T/C (dose: 200.0 mg/kg/injection, schedule: Q01DX009 (ip), vehicle: other) was 105 % of control and the T/C (dose: 400.0 mg/kg/injection, schedule: Q01DX009 (ip), vehicle: other) was 108 % of control.

`CC(C)(C)OC(=O)n1cnc(CC(NC(=O)OCc2ccccc2)C(=O)O)c1` (centres undefined) was tested, and the T/C [1] was 105 % of control, the T/C [2] was 100 % of control and the T/C [3] was 106 % of control.

With `CN=C(c1ccc(NC(=O)c2ccc(C(=O)Nc3ccc(C(=NC)N(C)C4CCCCC4)cc3)cc2)cc1)N(C)C1CCCCC1` the T/C (dose: 0.78 mg/kg/injection, schedule: Q01DX005 (ip), vehicle: Klucel (hydroxypropylcellulose) (HPC)) was 104 % of control, the T/C (dose: 1.56 mg/kg/injection, schedule: Q01DX005 (ip), vehicle: Klucel (hydroxypropylcellulose) (HPC)) was 101 % of control and the T/C (dose: 3.12 mg/kg/injection, schedule: Q01DX005 (ip), vehicle: Klucel (hydroxypropylcellulose) (HPC)) was 104 % of control.

`COC1=C(OC)C(=O)C(Sc2ccc3ccccc3c2)=CC1=O` was tested, and the T/C (dose: 6.25 mg/kg/injection, schedule: Q01DX009 (ip), vehicle: saline with Tween-80) was 103 % of control and 104 % of control, the T/C [4] was 104 % of control and the T/C [5] was 104 % of control and 119 % of control. For the same compound, the T/C [6] was 100 % of control and 111 % of control and the T/C [7] was 100 % of control.

In the case of `C=C1C(C(=O)OC)=NNc2c(C(N)=O)ncn21`, the T/C (dose: 25.0 mg/kg/injection, schedule: Q01DX001 (ip), vehicle: saline) is reported as 101 % of control, the T/C (dose: 50.0 mg/kg/injection, schedule: Q01DX001 (ip), vehicle: saline) is reported as 102 % of control and the T/C (dose: 100.0 mg/kg/injection, schedule: Q01DX001 (ip), vehicle: Klucel (hydroxypropylcellulose) (HPC)) is reported as 98 % of control. For the same compound, the T/C (dose: 200.0 mg/kg/injection, schedule: Q01DX001 (ip), vehicle: Klucel (hydroxypropylcellulose) (HPC)) was 105 % of control and the T/C (dose: 400.0 mg/kg/injection, schedule: Q01DX001 (ip), vehicle: saline) was 100 % of control.

In the case of `COc1ccccc1NC(=S)N/N=C\c1cc(N=Nc2ccccc2)cc(OC)c1O`, the T/C [1] is reported as 89 % of control and the T/C [2] is reported as 89 % of control.

In the case of `C=C(C)[C@@]12OC3(/C=C/C=C/CCCCC)O[C@@H]1[C@@H]1[C@@H]4O[C@]4(CO)[C@@H](O)[C@]4(O)C(=O)C(C)=C[C@H]4[C@@]1(O3)[C@H](C)[C@H]2OC(=O)c1ccccc1`, the T/C (dose: 0.1 mg/kg/injection, schedule: Q01DX009 (ip), vehicle: saline + alcohol) is reported as 120 % of control, the T/C (dose: 1.6 mg/kg/injection, schedule: Q01DX009 (ip), vehicle: saline + alcohol) is reported as 155 % of control and the T/C (dose: 0.8 micrograms/kg/injection, schedule: Q01DX009 (ip), vehicle: saline + alcohol) is reported as 101 % of control. For the same compound, the T/C (dose: 1.6 micrograms/kg/injection, schedule: Q01DX009 (ip), vehicle: saline + alcohol) was 101 % of control, the T/C (dose: 2.3 micrograms/kg/injection, schedule: Q01DX009 (ip), vehicle: saline + alcohol) was 97 % of control and the T/C (dose: 3.1 micrograms/kg/injection, schedule: Q01DX009 (ip), vehicle: saline + alcohol) was 119 % of control. The T/C (dose: 4.7 micrograms/kg/injection, schedule: Q01DX009 (ip), vehicle: saline + alcohol) was 100 % of control, the T/C (dose: 9.4 micrograms/kg/injection, schedule: Q01DX009 (ip), vehicle: saline + alcohol) was 97 % of control and the T/C (dose: 18.8 micrograms/kg/injection, schedule: Q01DX009 (ip), vehicle: saline + alcohol) was 95 % of control. For the same compound, the T/C (dose: 37.5 micrograms/kg/injection, schedule: Q01DX009 (ip), vehicle: saline + alcohol) was 100 % of control, the T/C (dose: 75.0 micrograms/kg/injection, schedule: Q01DX009 (ip), vehicle: saline + alcohol) was 119 % of control and the T/C (dose: 150.0 micrograms/kg/injection, schedule: Q01DX009 (ip), vehicle: saline + alcohol) was 114 % of control.

In the case of `CCC1=C[C@@H]2C[C@](C(=O)OC)(c3cc4c(cc3OC)N(C)[C@H]3[C@@](O)(C(=O)OC)[C@H](OC(C)=O)[C@]5(CC)C=CCN6CC[C@]43[C@@H]65)c3[nH]c4ccccc4c3CCN(C1)[C@@H]2O`, the T/C (dose: 2.5 mg/kg/injection, schedule: Q01DX001 (ip), vehicle: water) is reported as 117 % of control, the T/C (dose: 20.0 mg/kg/injection, schedule: Q01DX001 (ip), vehicle: water) is reported as 153 % of control and 159 % of control and the T/C (dose: 40.0 mg/kg/injection, schedule: Q01DX001 (ip), vehicle: water) is reported as 161 % of control and 170 % of control. For the same compound, the T/C (dose: 80.0 mg/kg/injection, schedule: Q01DX001 (ip), vehicle: water) was 180 % of control and the T/C (dose: 160.0 mg/kg/injection, schedule: Q01DX001 (ip), vehicle: water) was 93 % of control.

In the case of `Cc1ccc(N)c(S)c1`, the T/C (dose: 12.5 mg/kg/injection, schedule: Q01DX009 (ip), vehicle: Klucel (hydroxypropylcellulose) (HPC)) is reported as 98 % of control, the T/C (dose: 25.0 mg/kg/injection, schedule: Q01DX009 (ip), vehicle: Klucel (hydroxypropylcellulose) (HPC)) is reported as 120 % of control and the T/C [8] is reported as 117 % of control.

`Cc1ccc(C)c([N+](=O)[O-])c1C(=O)O` was tested, and the T/C (dose: 100.0 mg/kg/injection, schedule: Q04DX003 (ip), vehicle: saline + alcohol) was 98 % of control and the T/C (dose: 200.0 mg/kg/injection, schedule: Q04DX003 (ip), vehicle: saline + alcohol) was 98 % of control.

With `CCOS(=O)(=O)CCl` the T/C [4] was 106 % of control, the T/C [5] was 100 % of control and the T/C [6] was 107 % of control and 112 % of control.

With `Cc1cc(C)n2[nH]c(=O)cc2n1` the T/C (dose: 25.0 mg/kg/injection, schedule: Q01DX009 (ip), vehicle: suspension in saline) was 99 % of control, the T/C (dose: 50.0 mg/kg/injection, schedule: Q01DX009 (ip), vehicle: suspension in saline) was 97 % of control and the T/C (dose: 100.0 mg/kg/injection, schedule: Q01DX009 (ip), vehicle: suspension in saline) was 97 % of control. The T/C (dose: 200.0 mg/kg/injection, schedule: Q01DX009 (ip), vehicle: suspension in saline) was 98 % of control.

In the case of `CC(C)(C)OC(=O)N[C@@H](CNOCc1ccccc1)C(N)=O`, the T/C [1] is reported as 92 % of control, the T/C [2] is reported as 92 % of control and the T/C [3] is reported as 86 % of control.

In the case of `CCOCC[Si]12OCCN(CCO1)CCO2`, the T/C [9] is reported as 97 % of control, the T/C [10] is reported as 101 % of control and the T/C (dose: 200.0 mg/kg/injection, schedule: Q01DX005 (ip), vehicle: Klucel (hydroxypropylcellulose) (HPC)) is reported as 90 % of control.

For `CSC(=S)n1nc(-c2ccccc2)c(N=Nc2cccc(Cl)c2Cl)c1-c1ccccc1`, the T/C (dose: 100.0 mg/kg/injection, schedule: Q01DX001 (ip), vehicle: saline with Tween-80) was 87 % of control, the T/C (dose: 200.0 mg/kg/injection, schedule: Q01DX001 (ip), vehicle: saline with Tween-80) was 87 % of control and the T/C (dose: 400.0 mg/kg/injection, schedule: Q01DX001 (ip), vehicle: saline with Tween-80) was 97 % of control.

For `CCC(NC(C)C)C(O)c1ccc(O)c2[nH]c(=O)ccc12` (centres undefined), the T/C [8] was 104 % of control, the T/C (dose: 100.0 mg/kg/injection, schedule: Q01DX009 (ip), vehicle: Klucel (hydroxypropylcellulose) (HPC)) was 99 % of control and the T/C (dose: 200.0 mg/kg/injection, schedule: Q01DX009 (ip), vehicle: Klucel (hydroxypropylcellulose) (HPC)) was 96 % of control.

`COCCCNC(=O)c1nnn2c1nc(N)c1cc(Cl)ccc12` was tested, and the T/C [9] was 94 % of control and the T/C [10] was 88 % of control.

For `CC/C(=C(/CC)c1ccc(O)cc1)c1ccc(O)cc1`, the T/C (dose: 50.0 mg/kg/injection, schedule: Q01DX008 (ip), vehicle: saline with Tween-80) was 101 % of control, the T/C (dose: 100.0 mg/kg/injection, schedule: Q01DX008 (ip), vehicle: saline with Tween-80) was 97 % of control and the T/C (dose: 200.0 mg/kg/injection, schedule: Q01DX008 (ip), vehicle: saline with Tween-80) was 106 % of control. The T/C (dose: 400.0 mg/kg/injection, schedule: Q01DX008 (ip), vehicle: saline with Tween-80) was 99 % of control.

With `Oc1ccccc1CNCc1ccccc1O` the T/C [4] was 100 % of control, the T/C [5] was 100 % of control and the T/C [6] was 108 % of control. The T/C [7] was 98 % of control.

For `Cc1cccc(Oc2ccc(C(F)(F)F)cc2[N+](=O)[O-])c1C`, the T/C (dose: 50.0 mg/kg/injection, schedule: Q01DX009 (ip), vehicle: saline) was 99 % of control and the T/C (dose: 100.0 mg/kg/injection, schedule: Q01DX009 (ip), vehicle: saline) was 99 % of control.

`Brc1ccc2[nH]c3nc(N/N=C/c4cccnc4)nnc3c2c1` was tested, and the T/C (dose: 100.0 mg/kg/injection, schedule: Q04DX002 (ip), vehicle: saline with Tween-80) was 93 % of control, the T/C (dose: 200.0 mg/kg/injection, schedule: Q04DX002 (ip), vehicle: saline with Tween-80) was 91 % of control and the T/C (dose: 400.0 mg/kg/injection, schedule: Q04DX002 (ip), vehicle: saline with Tween-80) was 99 % of control.
